Each structure is given as a SMILES string.

Usually Km stands for the concentration of substrate that gives half-maximal velocity.

The subject of this assay is T1, CtHCT (CtNewGene_3476), recombinant hydroxycinnamoyl transferase.
T1 construct: gene HCT; HXXXD 156-160, DFGWG 379-383
Briefly: HPLC product assay, Lineweaver-Burk. The settings on record: pH 7.5, 35 °C, 1 mM Cu2+. The assay is classed as biochemical, Carthamus tinctorius. An excerpt:
HPLC product assay, Lineweaver-Burk on CtHCT (CtNewGene_3476), recombinant hydroxycinnamoyl transferase

In the case of `CC(C)(COP(=O)(O)OP(=O)(O)OC[C@H]1O[C@@H](n2cnc3c(N)ncnc32)[C@H](O)[C@@H]1OP(=O)(O)O)[C@@H](O)C(=O)NCCC(=O)NCCSC(=O)/C=C/c1ccc(O)c(O)c1` [C-COA, Caffeoyl-CoA], where the note is “saturating quinic acid”, the Km amounted to 32.6 µM.
With `CC(C)(COP(=O)(O)OP(=O)(O)OC[C@H]1O[C@@H](n2cnc3c(N)ncnc32)[C@H](O)[C@@H]1OP(=O)(O)O)[C@@H](O)C(=O)NCCC(=O)NCCSC(=O)/C=C/c1ccc(O)cc1` [p-CoCOA, p-Coumaroyl-CoA], the Km (saturating quinic acid) was found to be 9.41 µM.
For `O=C(O)[C@]1(O)C[C@@H](O)[C@@H](O)[C@H](O)C1` [QA, Quinic acid], under “saturating p-coumaroyl-CoA”, the Km is 7.11 µM.
On to `O=C(O)C1=C[C@@H](O)[C@@H](O)[C@H](O)C1` [SkA, Shikimic acid], for which the Km (saturating p-coumaroyl-CoA) was found to be 18.4 µM.

These data come from publication PMC10931740, “Uncovering the Role of Hydroxycinnamoyl Transferase in Boosting Chlorogenic Acid Accumulation in Carthamus tinctorius Cells under Methyl Jasmonate Elicitation” (International Journal of Molecular Sciences, 2024).
